# Test results published in patent publication US12492188B2, “1H-benzo[D]imidazole derivatives as TLR9 inhibitors for the treatment of fibrosis” (BRISTOL-MYERS SQUIBB COMPANY, priority 2020, dated 2025).
# Read-outs that look alike come from different tables or passages of the source.
# How the values were obtained:
# Assay type in all cases: cell-based
# human TLR8 = molecular target: T1, human TLR8 (Homo sapiens, UniProt Q9NR97); assay: TLR8 inhibition reporter assay (HEK-Blue cells, secreted embryonic alkaline phosphatase reporter); details: HEK-Blue cells overexpressing human TLR8, stimulated with R848 15.9 μM; read-out: TLR 8 IC50
# T1 construct: host or cells: HEK-Blue cells (HEK293-derived reporter line)
# T1 sequence (Q9NR97 27-1041): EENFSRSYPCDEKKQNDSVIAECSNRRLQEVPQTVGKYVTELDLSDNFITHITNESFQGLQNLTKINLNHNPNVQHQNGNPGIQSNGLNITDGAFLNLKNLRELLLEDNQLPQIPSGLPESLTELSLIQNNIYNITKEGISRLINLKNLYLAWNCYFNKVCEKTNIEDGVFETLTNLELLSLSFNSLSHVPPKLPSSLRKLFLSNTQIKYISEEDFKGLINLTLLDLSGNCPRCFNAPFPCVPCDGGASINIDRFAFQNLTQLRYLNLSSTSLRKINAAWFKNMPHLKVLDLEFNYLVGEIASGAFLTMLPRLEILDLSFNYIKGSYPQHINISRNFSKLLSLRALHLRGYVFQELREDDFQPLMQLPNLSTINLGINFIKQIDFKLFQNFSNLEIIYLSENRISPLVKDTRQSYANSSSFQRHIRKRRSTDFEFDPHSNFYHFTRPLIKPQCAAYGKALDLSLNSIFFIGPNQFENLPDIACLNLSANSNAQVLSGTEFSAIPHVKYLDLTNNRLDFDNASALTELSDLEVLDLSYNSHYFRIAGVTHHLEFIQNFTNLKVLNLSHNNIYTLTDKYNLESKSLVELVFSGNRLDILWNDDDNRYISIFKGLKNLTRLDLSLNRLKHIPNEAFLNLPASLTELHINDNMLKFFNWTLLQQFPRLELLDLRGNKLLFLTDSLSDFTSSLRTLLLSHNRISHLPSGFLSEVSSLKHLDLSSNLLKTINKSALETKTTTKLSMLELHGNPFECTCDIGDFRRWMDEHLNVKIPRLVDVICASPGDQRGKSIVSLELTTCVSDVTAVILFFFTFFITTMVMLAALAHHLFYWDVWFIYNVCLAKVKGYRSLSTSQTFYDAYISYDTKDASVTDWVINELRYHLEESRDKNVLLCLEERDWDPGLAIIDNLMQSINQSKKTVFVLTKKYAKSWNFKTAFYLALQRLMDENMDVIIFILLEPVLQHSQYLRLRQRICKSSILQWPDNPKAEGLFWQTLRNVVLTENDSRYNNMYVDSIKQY
# Method in brief: (§1)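 HEK-Blue cells expressing human TLR7, TLR8 or TLR9 with an NF-κB/AP-1-driven SEAP reporter were pretreated with compound (0.05 nM–50 μM final) for 30 min at room temperature. Agonists were gardiquimod 7.5 μM for TLR7, R848 15.9 μM for TLR8 and ODN2006 5 nM for TLR9. SEAP was read after 22 h at 37 °C, and inhibition was calculated relative to agonist-plus-DMSO and known-inhibitor controls.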
# human TLR7 = molecular target: T2, human TLR7 (Homo sapiens, UniProt Q9NYK1); assay: TLR7 inhibition reporter assay (HEK-Blue cells, secreted embryonic alkaline phosphatase reporter); details: HEK-Blue cells overexpressing human TLR7, stimulated with gardiquimod 7.5 μM; read-out: TLR 7 IC50
# T2 construct: host or cells: HEK-Blue cells (HEK293-derived reporter line)
# T2 sequence (Q9NYK1 27-1049): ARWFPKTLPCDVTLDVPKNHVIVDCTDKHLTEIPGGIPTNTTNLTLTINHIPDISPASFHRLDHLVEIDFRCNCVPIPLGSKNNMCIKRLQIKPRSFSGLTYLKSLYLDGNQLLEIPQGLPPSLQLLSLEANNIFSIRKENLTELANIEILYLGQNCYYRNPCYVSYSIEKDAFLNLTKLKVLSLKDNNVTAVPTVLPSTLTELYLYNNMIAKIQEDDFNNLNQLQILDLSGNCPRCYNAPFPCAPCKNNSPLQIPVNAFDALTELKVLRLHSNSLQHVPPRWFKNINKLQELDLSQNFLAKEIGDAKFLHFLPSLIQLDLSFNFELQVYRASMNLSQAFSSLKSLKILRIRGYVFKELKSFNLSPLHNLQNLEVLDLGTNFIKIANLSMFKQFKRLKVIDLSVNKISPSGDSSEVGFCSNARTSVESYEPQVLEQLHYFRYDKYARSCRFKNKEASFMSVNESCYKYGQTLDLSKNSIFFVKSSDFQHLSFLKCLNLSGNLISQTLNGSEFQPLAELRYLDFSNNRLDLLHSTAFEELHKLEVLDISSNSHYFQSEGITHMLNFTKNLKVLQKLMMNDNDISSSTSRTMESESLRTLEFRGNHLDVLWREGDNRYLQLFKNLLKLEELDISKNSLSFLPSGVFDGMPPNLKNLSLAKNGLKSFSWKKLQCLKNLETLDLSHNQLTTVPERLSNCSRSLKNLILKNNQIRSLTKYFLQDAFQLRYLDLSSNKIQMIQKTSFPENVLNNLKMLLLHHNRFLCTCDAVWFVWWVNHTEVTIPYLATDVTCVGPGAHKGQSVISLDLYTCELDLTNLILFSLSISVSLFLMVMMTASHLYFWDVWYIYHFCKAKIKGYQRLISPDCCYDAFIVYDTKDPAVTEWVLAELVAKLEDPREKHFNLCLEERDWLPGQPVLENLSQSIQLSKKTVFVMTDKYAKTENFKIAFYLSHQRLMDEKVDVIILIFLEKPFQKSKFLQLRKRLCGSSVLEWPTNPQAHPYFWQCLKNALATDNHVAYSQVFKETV
# Method in brief: as §1
# human TLR9 = molecular target: T3, human TLR9 (Homo sapiens, UniProt Q9NR96); assay: TLR9 inhibition reporter assay (HEK-Blue cells, secreted embryonic alkaline phosphatase reporter); details: HEK-Blue cells overexpressing human TLR9, stimulated with ODN2006 5 nM
# T3 construct: host or cells: HEK-Blue cells (HEK293-derived reporter line)
# T3 sequence (Q9NR96 26-1032): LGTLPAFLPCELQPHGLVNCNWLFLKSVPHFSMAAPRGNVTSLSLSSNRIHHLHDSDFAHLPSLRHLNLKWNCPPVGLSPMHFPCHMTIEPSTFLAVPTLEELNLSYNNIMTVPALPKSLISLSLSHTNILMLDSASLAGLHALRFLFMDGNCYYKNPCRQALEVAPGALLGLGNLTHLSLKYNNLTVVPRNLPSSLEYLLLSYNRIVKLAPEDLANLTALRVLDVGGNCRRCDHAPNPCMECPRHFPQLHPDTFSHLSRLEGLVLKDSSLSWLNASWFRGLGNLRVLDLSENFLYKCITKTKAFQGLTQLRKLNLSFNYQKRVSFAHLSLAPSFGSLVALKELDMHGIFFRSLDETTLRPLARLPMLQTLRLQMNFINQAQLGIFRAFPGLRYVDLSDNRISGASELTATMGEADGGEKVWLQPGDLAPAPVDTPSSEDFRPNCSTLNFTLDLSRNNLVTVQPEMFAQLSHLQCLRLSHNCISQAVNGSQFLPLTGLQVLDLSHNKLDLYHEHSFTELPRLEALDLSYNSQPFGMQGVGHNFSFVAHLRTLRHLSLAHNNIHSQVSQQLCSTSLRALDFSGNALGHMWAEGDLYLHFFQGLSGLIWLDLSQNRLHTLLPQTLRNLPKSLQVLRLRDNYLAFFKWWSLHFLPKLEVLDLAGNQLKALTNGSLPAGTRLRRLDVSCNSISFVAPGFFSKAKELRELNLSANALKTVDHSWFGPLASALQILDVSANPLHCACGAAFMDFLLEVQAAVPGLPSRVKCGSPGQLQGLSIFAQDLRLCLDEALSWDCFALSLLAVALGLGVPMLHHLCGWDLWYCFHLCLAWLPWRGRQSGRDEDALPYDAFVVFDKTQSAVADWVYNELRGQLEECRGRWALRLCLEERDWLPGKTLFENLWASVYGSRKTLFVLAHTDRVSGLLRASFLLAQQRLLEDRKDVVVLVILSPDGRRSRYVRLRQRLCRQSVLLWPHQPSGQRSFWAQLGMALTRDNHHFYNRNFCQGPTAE
# Method in brief: as §1
# [1] = 22 hour incubation, reporter readout
SMILES,IC50 (human TLR8) [nM],IC50 (human TLR7) [nM],IC50 (human TLR9; [1]) [nM],IC50 (human TLR9; read-out: TLR 9 IC50) [nM]
"COc1ccc(-c2nc3c(C)cc(C4CCN(C5CCN(C(C)C)CC5)CC4)cc3[nH]2)cc1F [Example 24, 2-(3-fluoro-4-methoxyphenyl)-6-(1′-isopropyl-[1,4′-bipiperidin]-4-yl)-4-methyl-1H-benzo[d]imidazole]",> 50000,3000,48,
"Cc1cc(C2CCN(C3CCN(CC(C)C)CC3)CC2)cc2[nH]c(-c3ccc4nccn4c3)nc12 [Example 25, 2-(imidazo[1,2-a]pyridin-6-yl)-6-(1′-isobutyl-[1,4′-bipiperidin]-4-yl)-4-methyl-1H-benzo[d]imidazole]",> 50000,3000,160,164
"COc1ccc(-c2nc3ccc(C4CCN(C5CCN(CC(C)C)CC5)CC4)cc3[nH]2)cc1OC [Example 28, 2-(3,4-dimethoxyphenyl)-6-(1′-isobutyl-[1,4′-bipiperidin]-4-yl)-1H-benzo[d]imidazole]",> 50000,2700,19,19
"COc1ccc(-c2nc3ccc(C4CCN(C5CCN(CC(C)C)CC5)CC4)cc3n2C(C)C)cc1OC [Example 30, 2-(3,4-dimethoxyphenyl)-6-(1′-isobutyl-[1,4′-bipiperidin]-4-yl)-1-isopropyl-1H-benzo[d]imidazole]",> 50000,9800,250,254
"COc1ccc(-c2nc3cc(C4CCN(C5CCN(CC(C)C)CC5)CC4)ccc3n2C)cc1OC [Example 34, 2-(3,4-dimethoxyphenyl)-5-(1′-isobutyl-[1,4′-bipiperidin]-4-yl)-1-methyl-1H-benzo[d]imidazole]",> 50000,16000,170,173
"COc1ccc(-c2nc3cc(C4CCN(C5CCN(CC(C)C)CC5)CC4)ccc3n2C(C)C)cc1OC [Example 36, 2-(3,4-dimethoxyphenyl)-5-(1′-isobutyl-[1,4′-bipiperidin]-4-yl)-1-isopropyl-1H-benzo[d]imidazole]",4600,6600,360,357

# Other lines, results leading:
IC50 (human TLR8) [nM],IC50 (human TLR7) [nM],IC50 (human TLR9; [1]) [nM],IC50 (human TLR9; read-out: TLR 9 IC50) [nM],SMILES
> 50000,32000,130,132,"COc1ccc(-c2nc3ccc(C4CCN(C5CCN(CC(C)C)CC5)CC4)cc3n2C)cc1OC [Example 26, 2-(3,4-dimethoxyphenyl)-6-(1′-isobutyl-[1,4′-bipiperidin]-4-yl)-1-methyl-1H-benzo[d]imidazole]"
> 50000,2400,110,106,"COc1ccc(-c2nc3ccc(C4CCN(C5CCN(C6CC6)CC5)CC4)cc3n2C)cc1OC [Example 27, 6-(1′-cyclopropyl-[1,4′-bipiperidin]-4-yl)-2-(3,4-dimethoxyphenyl)-1-methyl-1H-benzo[d]imidazole]"
> 50000,6600,110,11.2,"COc1ccc(-c2nc3ccc(C4CCN(C5CCN(C6CC6)CC5)CC4)cc3[nH]2)cc1OC [Example 29, 6-(1′-cyclopropyl-[1,4′-bipiperidin]-4-yl)-2-(3,4-dimethoxyphenyl)-1H-benzo[d]imidazole]"
> 50000,> 50000,750,749,"COc1ccc(-c2nc3ccc(C4CCN(C5CCN(C6CC6)CC5)CC4)cc3n2C(C)C)cc1OC [Example 31, 6-(1′-cyclopropyl-[1,4′-bipiperidin]-4-yl)-2-(3,4-dimethoxyphenyl)-1-isopropyl-1H-benzo[d]imidazole]"
> 50000,5700,210,212,"COc1ccc(-c2nc3ccc(C4CCN(C5CCN(CC(C)C)CC5)CC4)cc3n2CC(F)F)cc1OC [Example 32, 1-(2,2-difluoroethyl)-2-(3,4-dimethoxyphenyl)-6-(1′-isobutyl-[1,4′-bipiperidin]-4-yl)-1H-benzo[d]imidazole]"
35000,8100,680,681,"COc1ccc(-c2nc3ccc(C4CCN(C5CCN(C6CC6)CC5)CC4)cc3n2CC(F)F)cc1OC [Example 33, 6-(1′-cyclopropyl-[1,4′-bipiperidin]-4-yl)-1-(2,2-difluoroethyl)-2-(3,4-dimethoxyphenyl)-1H-benzo[d]imidazole]"
> 50000,7500,390,388,"COc1ccc(-c2nc3cc(C4CCN(C5CCN(C6CC6)CC5)CC4)ccc3n2C(C)C)cc1OC [Example 37, 5-(1′-cyclopropyl-[1,4′-bipiperidin]-4-yl)-2-(3,4-dimethoxyphenyl)-1-isopropyl-1H-benzo[d]imidazole]"
